Reference: US10266544B2, “Aryl substituted aminomethyl spectinomycin analogs as antibacterial agents” (ST. JUDE CHILDREN'S RESEARCH HOSPITAL, INC., priority 2013, dated 2019)
Structures can show the parent of a compound that is named as a salt. Where two headings read alike, the source gives them in different places.

Legend:
[1] = test system: M. tuberculosis clinical isolates; test: microbe, parasite or virus in culture; assay type: cell-based; conditions: Mycobacterium tuberculosis, H37RV, read-out: MIC H37Rv
[2] = test system: Haemophilus influenza (ATCC 49247); test: microbe, parasite or virus in culture; assay type: cell-based; conditions: ATCC49247; Haemophilus influenza; 4 μg per disc; range of at least two experiments; read-out: Zone of inhibition H.i.
[3] = test system: Burkholderia cepacia (ATCC 25416); test: MIC determination, microbroth dilution; assay type: cell-based; conditions: Burkholderia cepacia
[4] = test system: Neisseria gonorrhoeae (ATCC 49226); test: Disc diffusion assay; assay type: cell-based; conditions: ATCC49226, 4 μg per disc, read-out: Zone of inhibition N.g.
[5] = test system: Streptococcus pneumoniae (R6); test: MIC determination, microbroth dilution; assay type: cell-based
S. pneumoniae D39x = test: Mouse challenge, mouse model of lung infection; assay type: in vivo; conditions: p<0.02
Description: Mice were treated with a 5 mg/kg dose b.i.d. of spectinomycin (indicated as “SPC” in the figure) or compound 2 (the compound number refers to the compound number and associated structure shown in Table 1), or vehicle. (Panel B) The bacterial burden of mice at 18 hours post-challenge with S. pneumoniae D39x. (Panel C) Representative bioluminescent images of mice at 72 hours post challenge.
All experimental animal protocols were approved by the St. Jude Children's Research Hospital Institutional Animal Care and Use Committee. Seven week old, female BalbC/J mice (Jackson Labs, Bar Harbor, Me.) we utilized in these studies. All mice were maintained in BSL2 facilities and all experiments were done under inhaled isoflurane (2.5%). Bacteria (strain D39x) were introduced by intranasal administration of 2×10^7 CFU in 25 μL PBS. Mice received no treatment, plasmalyte A (vehicle control), ampicillin (100 mg/kg), spectinomycin (50, 25, 5 mg/kg) or the respective compounds (50, 25, 5 mg/kg) at dosages indicated. Antibiotics were administered in a volume of 100 μL by subcutaneous […] starting at 18 hours post challenge, a time point when the mice have developed pneumonia and bacteria have translocated into the bloodstream. Mice were subsequently dosed every 12 hours until 96 hours post challenge. Mice were monitored daily for signs of infection and weight loss. Differences in time to death were compared via Kaplan-Meier survival estimates. Bacterial density in blood was quantified at 24, 48, 72, and 96 hours post infection via blood collection, serial dilution, and plating. Groups were then compared by Mann-Whitney to determine statistical significance. At 8 days following challenge, surviving mice were euthanized and bacterial loads in lungs determined by homogenization followed by serial dilution and plating. In all instances, surviving mice had completely cleared bacteria from both the lungs and the bloodstream by this time point.
Compound 2 was tested for anti-pneumococcal activity in mice as described above. […]

[6] = test system: Proteus vulgaris (ATCC 33420); test: MIC determination, microbroth dilution; assay type: cell-based; conditions: ATCC33420
[7] = test system: Bacillus anthracis, Sterne 34F2; test: microbe, parasite or virus in culture; assay type: cell-based; conditions: STERNE34F2, read-out: MIC B.a.
Moraxella catarrhalis = test: MIC determination (Table 6); assay type: cell-based
[8] = test system: Klebsiella pneumoniae (ATCC 33495); test: MIC determination, microbroth dilution; assay type: cell-based; conditions: ATCC33495
[9] = test system: live vaccine strain (LVS) of Francisella tularensis; test: microbe, parasite or virus in culture; assay type: cell-based; conditions: Francisella tularensis, read-out: MIC F.t.
[10] = test system: Streptococcus pneumoniae clinical isolates representing several serotypes; test: MIC determination, Streptococcus pneumoniae panel of clinical isolates (Table 7); assay type: cell-based; conditions: for MIC: Streptococcus pneumoniae
Bacillus anthracis = test: microbe, parasite or virus in culture; assay type: cell-based; conditions: read-out: MIC B.a.
[11] = test system: Streptococcus pyogenes (ATCC 700294); test: MIC determination, microbroth dilution; assay type: cell-based; conditions: ATCC700294; Streptococcus pyogenes (ATCC 700294); read-out: MIC S. py.
E. coli K12 ΔtolC = test: microbe, parasite or virus in culture; assay type: cell-based; conditions: Escherichia coli, read-out: MIC E.c. Δtolc
[12] = test system: Bacillus subtilis (ATCC 23857); test: MIC determination, microbroth dilution; assay type: cell-based; conditions: ATCC23857; Bacillus subtilis (ATCC 23857); read-out: MIC B.s.
[13] = test system: Proteus mirabilis (ATCC 25933); test: MIC determination, microbroth dilution; assay type: cell-based; conditions: ATCC25933
[14] = test system: Stenotrophomonas maltophilia (ATCC 13637); test: MIC determination, microbroth dilution; assay type: cell-based; conditions: ATCC13637; Stenotrophomonas maltophilia (ATCC 13637); read-out: MIC S.m.
Yersinia pestis = test: microbe, parasite or virus in culture; assay type: cell-based; conditions: read-out: MIC Y.p.
[15] = test system: Pseudomonas aeruginosa (PA01); test: MIC determination, microbroth dilution; assay type: cell-based
[16] = test system: Legionella pneumophila (ATCC 33153); test: microbe, parasite or virus in culture; assay type: cell-based; conditions: ATCC33153, 72 h, read-out: Zone of inhibition L.p.

CN[C@@H]1[C@H](O)[C@H](NC)[C@H]2O[C@]3(O)[C@H](O[C@@H]2[C@H]1O)O[C@H](C)C[C@@]3(O)CNCc1ccc(F)cc1 [compound 2, 3′-(R)-3′-[(4-fluoro)benzylaminomethyl)]dihydrospectinomycin Trihydrochloride]
MIC [1]: 25 µg/mL | zone of inhibition at 4 µg/disc [2]: 17 to 19 mm | MIC ([3]; ATCC25416, read-out: MIC B.c., Burkholderia cepacia (ATCC 25416)): > 200 µg/mL | MIC ([3]; ATCC25416, read-out: MIC B.c., Burkholderia cepacia, Table 6): > 200 µg/mL | zone of inhibition at 4 µg/disc [4]: 16 to 19 mm | MIC ([5]; Streptococcus pneumoniae (R6), read-out: MIC S. pn.): 1.6 to 3.1 µg/mL | MIC ([5]; Streptococcus pneumoniae, S. pneumoniae R6, Drug Susceptible, read-out: MIC R6): 3.1 µg/mL | survival (S. pneumoniae D39x; 5 mg/Kg BID subcutaneous, from 18 hours post intranasal challenge, vs vehicle and spectinomycin): significantly improved survival | bacterial burden in the blood (S. pneumoniae D39x; 48 hours post-challenge, vs spectinomycin and vehicle): reduced significantly | MIC [6]: ≥ 200 µg/mL | MIC [7]: 25 µg/mL | MIC (Moraxella catarrhalis): 3.1 µg/mL | MIC [8]: 100 to 200 µg/mL | MIC [9]: 1.6 to 3.1 µg/mL | susceptibility of strains with mono-resistance to penicillin, streptomycin, and erythromycin [10]: highly susceptible | MIC ([10]; BAA1407, S. pneumoniae BAA-1407, Macrolide Resistant, read-out: MIC BAA-1407): 6.3 µg/mL | MIC ([10]; S. pneumoniae A66.1x, Drug Susceptible, read-out: MIC A66.1x): 1.6 µg/mL | MIC ([10]; S. pneumoniae BHN97x, Drug Susceptible, read-out: MIC BHN97x): 1.6 µg/mL | MIC ([10]; S. pneumoniae D39X, Drug Susceptible, read-out: MIC D39X): 1.6 µg/mL | MIC ([10]; S. pneumoniae Daw7, PenG Resistant, read-out: MIC Daw7): 3.1 µg/mL | MIC ([10]; S. pneumoniae Daw8, PenG Resistant, read-out: MIC Daw8): 3.1 µg/mL | MIC ([10]; S. pneumoniae Daw9, PenG Resistant, read-out: MIC Daw9): 3.1 µg/mL | MIC ([10]; S. pneumoniae Daw62, PenG Resistant, read-out: MIC Daw62): 3.1 µg/mL | MIC ([10]; S. pneumoniae Daw64, PenG Resistant, read-out: MIC Daw64): 3.1 µg/mL | MIC ([10]; S. pneumoniae OVA6, Macrolide Resistant, read-out: MIC OVA6): 3.1 µg/mL | MIC ([10]; S. pneumoniae T4X, Drug Susceptible, read-out: MIC T4X): 3.1 µg/mL | MIC (Bacillus anthracis): 25 µg/mL | MIC [11]: 1.6 to 3.1 µg/mL | MIC (E. coli K12 ΔtolC): 6.3 µg/mL | MIC [12]: 3.1 µg/mL | MIC [13]: > 200 µg/mL | MIC [14]: 25 µg/mL | MIC (Yersinia pestis): 100 µg/mL | MIC [15]: 100 to 200 µg/mL | zone of inhibition at 4 µg/disc [16]: 32 to 49 mm
